Assay results: ChEMBL document CHEMBL3352480, “Antiproliferative glabretal-type triterpenoids from the root bark of Dictamnus dasycarpus” (Bioorg Med Chem Lett, 2015)

Assays:
[1] = Immunosupressive activity in OVA323-339 peptide-stimulated OT-2 T cell receptor transgenic mouse splenocytes assessed as inhibition of T cell proliferation after 3 days by MTT assay; assay type: functional, cell-based; settings: Splenocyte, 72 h
[2] = Effect on IFN-gamma secretion in OVA323-339 peptide-stimulated OT-2 T cell receptor transgenic mouse T cells after 3 days by sandwich ELISA; assay type: cell-based; settings: splenocyte, 72 h
[3] = Cytotoxicity against OT-2 T cell receptor transgenic mouse splenocytes using propidium iodide by flow cytometry; assay type: cell-based; settings: splenocyte
[4] = Effect on IL-2 secretion in OVA323-339 peptide-stimulated OT-2 T cell receptor transgenic mouse T cells after 3 days by sandwich ELISA; assay type: cell-based; settings: splenocyte, 72 h

SMILES | IC50 [1] [µM] | Activity [2] | Activity [3] | Activity [4]
CC(C)CC(=O)O[C@@H]1CC[C@]2(C)[C@H]3CC[C@]45C[C@]4(CC[C@H]5[C@@H]4C[C@H]([C@@H]5O[C@]5(C)CO)OC4O)[C@]3(C)[C@H](O)C[C@H]2C1(C)C (stereo partly specified) | 1.5 | Non-toxic | Non-toxic | Non-toxic
CCCCCCCCCC(=O)O[C@@H]1CC[C@]2(C)[C@H]3CC[C@]45C[C@]4(CC[C@H]5[C@@H]4C[C@H]([C@@H]5O[C@]5(C)CO)OC4O)[C@]3(C)[C@H](O)C[C@H]2C1(C)C (stereo partly specified) | 1.8 | Non-toxic | Non-toxic | Non-toxic
CCC(C)CCCCCCC(=O)O[C@@H]1CC[C@]2(C)[C@H]3CC[C@]45C[C@]4(CC[C@H]5[C@@H]4C[C@H]([C@@H]5O[C@]5(C)CO)OC4O)[C@]3(C)[C@H](O)C[C@H]2C1(C)C (stereo partly specified) | 1.5 | Non-toxic | Non-toxic | Non-toxic
CC(C)CC(=O)O[C@@H]1CC[C@]2(C)[C@H]3CC[C@]45C[C@]4(CC[C@H]5[C@@H]4C[C@H]([C@H](O)C(C)(C)O)OC4O)[C@]3(C)[C@H](O)C[C@H]2C1(C)C (stereo partly specified) | > 20 | Non-toxic | Non-toxic | Non-toxic
